Results as given in patent publication US11980188B2, “Spiro cyclohexanedione derivates as herbicides” (SYNGENTA PARTICIPATIONS AG, priority 2018, dated 2024).

Experiments:
Assay in all cases: Glasshouse herbicide test, pre- and post-emergence, percentage damage
Assay type in all cases: in vivo
[1] = test system: Alopecurus myosuroides (ALOMY); conditions: 250 g/h, evaluated after 13 days, percentage damage on five point scale; for ALOMY POST: post-emergence; for ALOMY PRE: pre-emergence
Description: (§1) Seeds of a variety of test species are sown in standard soil in pots (Lolium perenne (LOLPE), Setaria faberi (SETFA), Alopecurus myosuroides (ALOMY), Echinochloa crus-galli (ECHCG), Avena fatua (AVEFA)). After cultivation for one day (pre-emergence) or after 8 days cultivation (post-emergence) under controlled conditions in a glasshouse (at 24/16° C., day/night; 14 hours light; 65% humidity), the plants are sprayed with an aqueous spray solution derived from the formulation of the technical active ingredient in acetone/water (50:50) solution containing 0.5% Tween 20 (polyoxyethelyene sorbitan monolaurate, CAS RN 9005-64-5). Compounds are applied at […]. The test plants are then grown in a glasshouse under controlled conditions in a glasshouse (at 24/16° C., day/night; 14 hours light; 65% humidity) and watered twice daily. After 13 days for pre and post-emergence, the test is evaluated for the percentage damage caused to the plant. The biological activities are shown in the following table on a five point scale (5=80-100%; 4=60-79%; 3=40-59%; 2=20-39%; 1=0-19%).

Avena fatua (AVEFA) = conditions: 250 g/h, evaluated after 13 days, percentage damage on five point scale; for AVEFA POST: post-emergence; for AVEFA PRE: pre-emergence
Description: as §1

[2] = test system: Echinochloa crus-galli (ECHCG); conditions: 250 g/h, evaluated after 13 days, percentage damage on five point scale; for ECHCG POST: post-emergence; for ECHCG PRE: pre-emergence
Description: as §1

Lolium perenne (LOLPE) = conditions: 250 g/h, evaluated after 13 days, percentage damage on five point scale; for LOLPE POST: post-emergence; for LOLPE PRE: pre-emergence
Description: as §1

Setaria faberi (SETFA) = conditions: 250 g/h, evaluated after 13 days, percentage damage on five point scale; for SETFA POST: post-emergence; for SETFA PRE: pre-emergence
Description: as §1

With `CC(=O)N1CCC2(CC1)CC(=O)C(c1c(C)cc(-c3ccc(Cl)cn3)cc1C)C(=O)C2` [Compound A45] as the compound, how does the “ALOMY POST” value [1] read?
Its value is 5 (5=80-100%).

And the “ALOMY PRE” value [1]?
The value was 5 (5=80-100%).

What about the “AVEFA POST” value (Avena fatua (AVEFA)) of the same compound?
Its value is 5 (5=80-100%).

And the “AVEFA PRE” value (Avena fatua (AVEFA))?
The value was 5 (5=80-100%).

What about the “ECHCG POST” value [2] of the same compound?
Its value is 5 (5=80-100%).

What about the “ECHCG PRE” value [2] of the same compound?
Its value is 5 (5=80-100%).

What about the “LOLPE POST” value (Lolium perenne (LOLPE)) of the same compound?
Its value is 5 (5=80-100%).

And the “LOLPE PRE” value (Lolium perenne (LOLPE))?
The value was 5 (5=80-100%).

What about the “SETFA POST” value (Setaria faberi (SETFA)) of the same compound?
Its value is 5 (5=80-100%).

And the “SETFA PRE” value (Setaria faberi (SETFA))?
Its value is 5 (5=80-100%).

What does the source list for `Cc1cc(-c2ncc(F)cn2)cc(C)c1C1C(=O)CC2(CCN(C(=O)NC(=O)c3ccccn3)CC2)CC1=O` [Compound A41]?
ALOMY POST [1]: 5 (5=80-100%); ALOMY PRE [1]: 3 (3=40-59%); AVEFA POST (Avena fatua (AVEFA)): 5 (5=80-100%); AVEFA PRE (Avena fatua (AVEFA)): 3 (3=40-59%); ECHCG POST [2]: 5 (5=80-100%); ECHCG PRE [2]: 4 (4=60-79%); LOLPE POST (Lolium perenne (LOLPE)): 5 (5=80-100%); LOLPE PRE (Lolium perenne (LOLPE)): 3 (3=40-59%); SETFA POST (Setaria faberi (SETFA)): 5 (5=80-100%); SETFA PRE (Setaria faberi (SETFA)): 5 (5=80-100%)

For `CCS(=O)(=O)N1CCC2(CC1)CC(=O)C(c1c(C)cc(-c3ccc(F)cc3)cc1C)C(=O)C2` [Compound A53], which “ALOMY PRE” value [1] is on record?
The value was 5 (5=80-100%).

And the “AVEFA POST” value (Avena fatua (AVEFA))?
The value was 5 (5=80-100%).

And the “AVEFA PRE” value (Avena fatua (AVEFA))?
Its value is 4 (4=60-79%).

And the “ECHCG POST” value [2]?
The value was 3 (3=40-59%).

And the “ECHCG PRE” value [2]?
The value was 5 (5=80-100%).

And the “LOLPE POST” value (Lolium perenne (LOLPE))?
The value was 5 (5=80-100%).

What about the “LOLPE PRE” value (Lolium perenne (LOLPE)) of the same compound?
Its value is 5 (5=80-100%).

And the “SETFA POST” value (Setaria faberi (SETFA))?
Its value is 5 (5=80-100%).

What about the “SETFA PRE” value (Setaria faberi (SETFA)) of the same compound?
Its value is 5 (5=80-100%).

For `CON1CCC2(CC1)CC(=O)C(c1c(C)cc(-n3cc(Cl)cn3)cc1C)C(=O)C2` [Compound A5], which “ALOMY POST” value [1] is on record?
Its value is 5 (5=80-100%).

What about the “ALOMY PRE” value [1] of the same compound?
Its value is 5 (5=80-100%).

What about the “AVEFA POST” value (Avena fatua (AVEFA)) of the same compound?
Its value is 5 (5=80-100%).

What about the “AVEFA PRE” value (Avena fatua (AVEFA)) of the same compound?
The value was 5 (5=80-100%).

And the “ECHCG POST” value [2]?
Its value is 5 (5=80-100%).

What about the “ECHCG PRE” value [2] of the same compound?
The value was 5 (5=80-100%).

What about the “LOLPE POST” value (Lolium perenne (LOLPE)) of the same compound?
The value was 5 (5=80-100%).

And the “LOLPE PRE” value (Lolium perenne (LOLPE))?
The value was 5 (5=80-100%).

What about the “SETFA POST” value (Setaria faberi (SETFA)) of the same compound?
Its value is 5 (5=80-100%).

What about the “SETFA PRE” value (Setaria faberi (SETFA)) of the same compound?
The value was 5 (5=80-100%).

Which “ALOMY POST” value [1] does the source give for `Cc1cc(-c2ncc(F)cn2)cc(C)c1C1C(=O)CC2(CCN(C(=O)NC(C)(C)C)CC2)CC1=O` [Compound A36] here?
Its value is 5 (5=80-100%).

What about the “ALOMY PRE” value [1] of the same compound?
Its value is 5 (5=80-100%).

And the “AVEFA POST” value (Avena fatua (AVEFA))?
Its value is 5 (5=80-100%).

And the “AVEFA PRE” value (Avena fatua (AVEFA))?
Its value is 5 (5=80-100%).

What about the “ECHCG PRE” value [2] of the same compound?
Its value is 5 (5=80-100%).

And the “LOLPE POST” value (Lolium perenne (LOLPE))?
Its value is 5 (5=80-100%).

And the “LOLPE PRE” value (Lolium perenne (LOLPE))?
Its value is 5 (5=80-100%).

What about the “SETFA POST” value (Setaria faberi (SETFA)) of the same compound?
Its value is 5 (5=80-100%).

What about the “SETFA PRE” value (Setaria faberi (SETFA)) of the same compound?
The value was 5 (5=80-100%).

`COc1cc(-c2ncc(F)cn2)cc(C)c1C1C(=O)CC2(CCN(OC)CC2)CC1=O` [Compound A10] was tested. Which “ALOMY POST” value [1] did it give?
The value was 5 (5=80-100%).

What about the “ALOMY PRE” value [1] of the same compound?
Its value is 5 (5=80-100%).

What about the “AVEFA POST” value (Avena fatua (AVEFA)) of the same compound?
Its value is 5 (5=80-100%).

And the “AVEFA PRE” value (Avena fatua (AVEFA))?
Its value is 5 (5=80-100%).

And the “ECHCG POST” value [2]?
The value was 5 (5=80-100%).

And the “ECHCG PRE” value [2]?
The value was 5 (5=80-100%).

What about the “LOLPE POST” value (Lolium perenne (LOLPE)) of the same compound?
The value was 5 (5=80-100%).

What about the “LOLPE PRE” value (Lolium perenne (LOLPE)) of the same compound?
The value was 5 (5=80-100%).

And the “SETFA POST” value (Setaria faberi (SETFA))?
The value was 5 (5=80-100%).

And the “SETFA PRE” value (Setaria faberi (SETFA))?
Its value is 5 (5=80-100%).

`Cc1cc(-c2ccc(C#N)cn2)cc(C)c1C1C(=O)CC2(CCN(C(=O)NC(=O)c3ccccn3)CC2)CC1=O` [Compound A31] was tested. Which “ALOMY POST” value [1] did it give?
The value was 5 (5=80-100%).

What about the “ALOMY PRE” value [1] of the same compound?
The value was 1 (1=0-19%).

And the “AVEFA POST” value (Avena fatua (AVEFA))?
Its value is 5 (5=80-100%).

And the “ECHCG POST” value [2]?
The value was 5 (5=80-100%).

What about the “ECHCG PRE” value [2] of the same compound?
The value was 3 (3=40-59%).

What about the “LOLPE POST” value (Lolium perenne (LOLPE)) of the same compound?
The value was 5 (5=80-100%).

What about the “LOLPE PRE” value (Lolium perenne (LOLPE)) of the same compound?
Its value is 1 (1=0-19%).

And the “SETFA POST” value (Setaria faberi (SETFA))?
The value was 5 (5=80-100%).

What about the “SETFA PRE” value (Setaria faberi (SETFA)) of the same compound?
The value was 1 (1=0-19%).

What does the source list for `CC(=O)N1CCC2(CC1)CC(=O)C(c1c(C)cc(-c3ccc(F)cn3)cc1C)C(=O)C2` [Compound A46]?
ALOMY POST [1]: 5 (5=80-100%); ALOMY PRE [1]: 5 (5=80-100%); AVEFA POST (Avena fatua (AVEFA)): 5 (5=80-100%); AVEFA PRE (Avena fatua (AVEFA)): 5 (5=80-100%); ECHCG POST [2]: 5 (5=80-100%); ECHCG PRE [2]: 5 (5=80-100%); LOLPE POST (Lolium perenne (LOLPE)): 5 (5=80-100%); LOLPE PRE (Lolium perenne (LOLPE)): 5 (5=80-100%); SETFA POST (Setaria faberi (SETFA)): 5 (5=80-100%); SETFA PRE (Setaria faberi (SETFA)): 5 (5=80-100%)

`COc1cc(-c2ccc(C#N)cn2)cc(C)c1C1C(=O)CC2(CCN(C(C)=O)CC2)CC1=O` [Compound A18] was tested. Which “ALOMY POST” value [1] did it give?
Its value is 5 (5=80-100%).

What about the “ALOMY PRE” value [1] of the same compound?
Its value is 4 (4=60-79%).

And the “AVEFA POST” value (Avena fatua (AVEFA))?
The value was 5 (5=80-100%).

And the “AVEFA PRE” value (Avena fatua (AVEFA))?
The value was 5 (5=80-100%).

And the “ECHCG POST” value [2]?
Its value is 5 (5=80-100%).

What about the “ECHCG PRE” value [2] of the same compound?
The value was 5 (5=80-100%).

What about the “LOLPE POST” value (Lolium perenne (LOLPE)) of the same compound?
Its value is 5 (5=80-100%).

And the “LOLPE PRE” value (Lolium perenne (LOLPE))?
Its value is 5 (5=80-100%).

What about the “SETFA POST” value (Setaria faberi (SETFA)) of the same compound?
Its value is 5 (5=80-100%).

And the “SETFA PRE” value (Setaria faberi (SETFA))?
Its value is 5 (5=80-100%).

What does the source list for `Cc1cc(-c2ccc(F)cc2)cc(C)c1C1C(=O)CC2(CCN(C(=O)CC#N)CC2)CC1=O` [Compound A63]?
ALOMY PRE [1]: 5 (5=80-100%); AVEFA POST (Avena fatua (AVEFA)): 5 (5=80-100%); AVEFA PRE (Avena fatua (AVEFA)): 5 (5=80-100%); ECHCG POST [2]: 4 (4=60-79%); ECHCG PRE [2]: 5 (5=80-100%); LOLPE POST (Lolium perenne (LOLPE)): 5 (5=80-100%); LOLPE PRE (Lolium perenne (LOLPE)): 5 (5=80-100%); SETFA POST (Setaria faberi (SETFA)): 5 (5=80-100%); SETFA PRE (Setaria faberi (SETFA)): 5 (5=80-100%)
